# Reference: patent US20260174714A1, “NONHUMAN ANIMAL AND USE THEREOF” (THE JIKEI UNIVERSITY, priority 2022, published 2026)
# Columns and labels:
# [1] = test system: foreign proximal renal tubular cells; settings: mouse, in vivo, ip
# Source text: (§1) This method has a low accuracy in the cell injection site and a low survival rate of the host fetus, and thus, a simpler method is required to establish the method as an evaluation model. Therefore, the collected cells derived from the EGFP mouse embryonic E14 kidney were directly injected into a subcapsular region of the kidney of a neonatal mouse aged 0 to 1 day after birth (see FIG. 3) by utilizing a fact that nephron precursor cells remain until about 3 days after birth and the renal development continues in mice (see Hartman H A, Lai H L. Cessation of renal morphogenesis in mice. 2007; 310(2): 379-87).
# (§2) Cisplatin was intraperitoneally administered to a mouse individual having a chimeric kidney 2 weeks after transplantation, which was created in Experimental Example 1, and the regenerated nephrons were recovered 48 hours later and evaluated by immunofluorescence staining.
# [2] = test system: foreign proximal renal tubular cells; settings: in vivo, ip
# Source text: In Experimental Example 1, instead of the collected cells derived from the EGFP mouse embryonic E14 kidney, GFP-expressing human nephron precursor cells were directly injected into a subcapsular region of the kidney of a neonatal mouse aged 0 to 1 day after birth. The foreign nephrons in the cell injection region 2 weeks after the transplantation were examined by immunostaining (see (A) of FIG. 9). As shown in (A) of FIG. 9, the formation of glomeruli and renal tubules derived from GFP-expressing human nephron precursor cells was confirmed. In addition, cisplatin was intraperitoneally administered to a mouse individual having a chimeric kidney 2 weeks after the transplantation of the GFP-expressing human nephron precursor cells, and the regenerated nephrons were recovered 48 hours later and evaluated by immunofluorescence staining.
# [3] = test system: regenerated nephrons; settings: mouse, in vivo, ip
# Source text: as §1, §2
# In addition, single-cell RNA sequencing was performed on the recovered sample.
smiles,measurement,setting,value
N.N.[Cl][Pt][Cl] [cisplatin],expression of Kim-1 in the foreign proximal renal tubular cells,[1],dose-dependent expression of Kim-1 was confirmed
same,expression of human Kim-1 in the foreign proximal renal tubular cells,[2],expression of human Kim-1 was confirmed
same,expression of disorder-related genes other than Kim-1,[3],enhanced expression of disorder-related genes other than Kim-1 was also confirmed
